Several values for one entry are separate records, joined by “and”; a condition that tells them apart may be missing. Identical values can stand only once. Entries after “also recorded” stand apart in the source; their conditions may differ. Like-named read-outs stand apart in the source and are kept apart here.
Tests used:
[1] = test system: ST111/111 striatal cells (Hdh^Q111/Q111, full-length mutant huntingtin); assay: striatal cell line assay: huntingtin localization phenotype (AP229 immunostaining, confocal); format: cell-based, mouse; settings: for Percentage of ST111/111 cells showing cytoplasmic/nuclear huntingtin localization comparable to wild-type ST7/7 cells: 30 min at 33°C, mean ± SD of 5–10 fields
Text: To test the hypothesis that compounds, which inhibit the aggregation-promoting property of amino-terminal mutant huntingtin will also rescue effects of full-length mutant huntingtin, we tested the top six inhibitors in a striatal cell-based assay. Mutant Hdh^Q111/Q111 and wild-type Hdh^Q7/Q7 striatal cell lines, […], which have been prepared by transformation with a tsSV40 vector, can be propagated in culture and used for cytological and biochemical comparisons. These cells express full-length mutant or wild-type huntingtin, respectively, with no evidence of truncated amino-terminal fragments, no formation of polyglutamine aggregates and no cell death-producing toxicity. However, like the striatal neurons of Hdh^Q111/Q111 knock-in mice, the ST111/111 cells show nuclear staining of huntingtin when tested with an amino-terminal huntingtin antibody that is sensitive to the conformation of the full-length protein (Figure 5A). By contrast, ST7/7 cells expressing wild type huntingtin show both nuclear and cytoplasmic immunostaining with the same huntingtin antibody (Figure 5A).
Conditionally immortalized wild-type Hdh^Q7/Q7 striatal neuronal progenitor cells (ST7/7) expressing endogenous normal huntingtin, and homozygous Hdh^Q111/Q111 striatal neuronal progenitor cells (ST111/111), expressing endogenous mutant huntingtin with 111-glutamines, have been described previously. The striatal cell lines were grown at 33°C in Dulbecco's modified Eagle's medium (DMEM) supplemented with 10 % fetal bovine serum (FBS), 1% nonessential aminoacids, 2 mM L-glutamine and 400 μg/ml G418 (Geneticin (GIBCO-BRL, Life Technologies, Gaithersburg, MD).
(§1) In the immunofluorescence and confocal analysis experiment, wild-type ST7/7 and homozygous mutant ST111/111 cells, grown to confluence on glass coverslips, were treated with 6 different drugs at four different concentrations (0.5, 5, 10 or 50 μM) for 30 min at 33°C. After the treatment the drugs were removed and the cells washed twice in PBS. The cells were then fixed by incubation in 4% formaldehyde for 15 min, permeabilized by 0.1% Triton X-100 for 5 min and incubated for 30 min with blocking solution (1% bovine albumin in PBS). Coverslips were then incubated in primary antibody (AP229 1:500 dilution) for 2 h at room temperature and washed three times in PBS before a further 1 h in blocking solution containing the secondary antibody (goat anti-rabbit Cy3, Jackson ImmunoResearch, West Grove, PA. USA). After three washes in PBS coverslips were mounted onto glass slides with Vectashield (Burlingame, CA. USA) and the images were analyzed with a laser confocal microscope (Bio-Rad, Hercules, CA. USA) using 20 × objective. Cell death was quantified by scoring the percentage of cells with apoptotic nuclear morphology, i.e. condensed or fragmented nuclei, under the confocal microscope. In each case five to ten randomly selected fields were counted, comprising at least 200 cells, and each experiment was repeated 3 times.

[2] = test system: PC12 cells expressing huntingtin exon 1 encoding 103 glutamines; set-up: method as in PMID 15262266; settings: cited from earlier work
[3] = test system: HEK 293T cells expressing androgen receptor with 112 glutamines; settings: cited from earlier work
[4] = biological target: T1, Q58-htn 1–171 amino terminal fragment (GST-Q58-Htn cleaved by thrombin) (Homo sapiens, UniProt P42858, INS38QQQQQQQQQQQQQQQQQQQQQQQQQQQQQQQQQQQQQ); assay: in vitro aggregation of amino-terminal mutant huntingtin fragment (filter retardation dot blot); format: biochemical
T1 construct: the amino terminal fragment 1–171 of mutant huntingtin; GST (N, cleaved yes); made in house; host or cells: E. coli BL21 (pGEX-2TK vector)
Experimental: In our primary screen (Figure 1A), GST-Q58-Htn (20 μg/ml) was mixed with thrombin (0.5 unit/μg GST-Q58-Htn) and immediately dispensed into a 96-well PCR plate containing compounds diluted to a final concentration of 100 μM. Incubation was continued for 24 hours at room temperature to allow aggregate formation. The aggregation was stopped by 2% SDS/10 mM 2-mercaptoethanol followed by boiling for 5 minutes. The mixture was filtered through a cellulose acetate membrane by using a 96-well ELIFA dot blot apparatus. The aggregates retained on the membrane were detected and quantified by immunoblotting and subsequent image analysis. Congo Red, a known huntingtin aggregation inhibitor, was used as the positive control.
A recombinant pGEX-2TK expression vector with cDNA fragment encoding amino terminal 171 amino acids of human huntingtin with a polyglutamine tract of 58 was used to prepare the GST-Q58-htn fusion protein. The GST-Q58-htn was overexpressed in BL21 cells and purified by affinity chromatography over glutathione-sepharose 4B beads (Amersham Pharmacia Biotech). The purified proteins were stored at concentration of 2.0 mg/ml at -80°C.
For primary screening of the chemical library, 1 μl of 4.0 mM small compound stock, diluted from the original plates, was placed in wells of 96-well plates. The fusion protein, GST-Q58-Htn was mixed with thrombin (0.5 unit/1 μg protein) at a concentration of 20 μg/ml in a buffer of 50 mM Tris-HCl, pH 8.0, 100 mM NaCl, 2.5 mM CaCl2, 1.0 mM EDTA. The mixture was immediately distributed into the 96-well plates containing diluted compounds at 40 μl/well and mixed well. The final concentration of the small compounds was 100 μM. After 24 hours incubation at room temperature, the reaction was stopped by adding 10 μl of 10% SDS/50 mM 2-mercaptoethanol to each well followed by boiling in a PCR machine for 5 minutes. The mixture from each well was filtered through a cellulose acetate membrane ((0.2 μm, GE Osmonics labstore, Minnetonka MN) by using a 96-well ELIFA (Pierce Biotech). The aggregates retained on the membrane were detected by a specific anti-huntingtin antibody, HP1 (diluted 1:1000), followed by incubation with peroxidase conjugated anti-rabbit antibody (diluted 1:10,000, Sigma). Signals from SDS insoluble aggregates were scanned and quantified by using ImageMaster Totalab image analysis software (Amersham Pharmacia Biotech). In the secondary screening, all steps were the same except the final concentration of compound in each well was reduced to 10 μM and the GST-Q58-Htn/thrombin mixture was preincubated for 45-minutes at room temperature and clarified by centrifugation at 28,000 × g for 30 minutes before being added to the test wells. For IC50 determinations, the in vitro aggregation assay and signal quantification were performed as in the second screening but varying the final concentration of input drug. The data for each inhibitor were obtained from at least two independent experiments in which every sample was analyzed in triplicate with Prism 3.0 software (Graphpad Software, Inc., San Diego, CA).

[5] = test system: ST111/111 striatal cells; format: cell-based; settings: 30 min at 33°C
Experimental: as §1, with “After” for “In the immunofluorescence and confocal analysis experiment, wild-type ST7/7 and homozygous mutant ST111/111 cells, grown to confluence on glass coverslips, were treated with 6 different drugs at four different concentrations (0.5, 5, 10 or 50 μM) for 30 min at 33°C. After”

T1 sequence (P42858 with tags, fused parts or gaps with the stated changes limits assumed): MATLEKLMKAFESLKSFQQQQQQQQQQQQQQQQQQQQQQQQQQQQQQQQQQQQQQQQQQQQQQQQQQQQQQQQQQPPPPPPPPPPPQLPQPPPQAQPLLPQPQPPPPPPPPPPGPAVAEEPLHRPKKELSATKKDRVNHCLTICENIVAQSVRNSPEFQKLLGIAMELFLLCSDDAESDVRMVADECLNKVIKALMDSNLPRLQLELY

CC1=C(O)C(=O)C=C2C1=CC=C1[C@@]2(C)CC[C@@]2(C)[C@@H]3C[C@](C)(C(=O)O)CC[C@]3(C)CC[C@]12C [Celastrol]
Percentage of ST111/111 cells showing cytoplasmic/nuclear huntingtin localization comparable to wild-type ST7/7 cells ([1]; 0.5 μM): 8.7 ± 8.7% | Percentage of ST111/111 cells showing cytoplasmic/nuclear huntingtin localization comparable to wild-type ST7/7 cells ([1]; 5 μM): 69.2 ± 3.8% | Percentage of ST111/111 cells showing cytoplasmic/nuclear huntingtin localization comparable to wild-type ST7/7 cells ([1]; 10 μM): 78.1 ± 3.5% | reversal of the mutant huntingtin localization phenotype (in words) ([1]; 0.5–50 μM tested): reversed the mutant phenotype in a dose-dependent manner; also recorded: effective | protection against polyglutamine toxicity [2]: partially protective | effect on caspase 3 activation [3]: blocked caspase 3 activation | toxicity in the HEK 293T assay [3]: showed toxicity | IC50 [4]: < 6 µM and < 15 µM and 3.55 µM | residual aggregate formed ([4]; at the maximum concentration of the dose response (0.01 μM to 500 μM)): approximately 20% | percentage of dead cells ([5]; 5 μM): 1% | percentage of dead cells ([5]; 10 μM): 4%

From paper PMC548150, “Reversal of a full-length mutant huntingtin neuronal cell phenotype by chemical inhibitors of polyglutamine-mediated aggregation” (BMC Neuroscience, 2005)
